{"source": "patent US6497886B1", "about": "“1,3-bis-(N-lactamyl) propane and the pharmaceutical and cosmetic use thereof” (BASF Aktiengesellschaft, priority 1996, dated 2002)", "key": {"[1]": {"experiment": "Saturation solubility of active ingredients in 1,3-bis(1-pyrrolidonyl)butane as solvent (Example 5)", "type": "physicochemical", "conditions": "22 °C, organic solvent or mixture, thermodynamic from solid, stirred at room temperature for 72 hours, filtrate by UV photometry, read-out: maximum solubility at 22° C.", "method": "It was stirred at room temperature for 72 hours."}, "[2]": {"experiment": "Maximum soluble amount of active ingredient in cosolvent:water mixtures and phosphate buffer (Example 6)", "conditions": "for cosolvent quality mixed with water compared with propylene glycol: for hydrophilic active ingredients such as paracetamol, theophylline or trimethoprim", "quoted_text": "To 20 ml 1,3-bis(1-pyrrolidonyl)butane was added the active ingredient in an amount which is above the amount of this active ingredient able to dissolve in this volume. It was stirred at room temperature for 72 hours. As a rule, this time ensured that the saturation solubility in the medium was reached. After subsequent filtration, the content of active ingredient in the filtrate was determined by UV photometry.\ne) 1,2-Propylene glycol (1,2-PG):water (1:1)\nf) 1,2-Propylene glycol (1,2-PG):water (1:3)"}, "[3]": {"conditions": "cited from earlier work"}, "[4]": {"conditions": "25% 1,2-PG (1,2-propylene glycol:water 1:3), 20 ml"}, "[5]": {"conditions": "25% DHVP (1,3-bis(1-pyrrolidonyl)butane:water 1:3), 20 ml"}, "[6]": {"conditions": "50% 1,2-PG (1,2-propylene glycol:water 1:1), 20 ml"}, "[7]": {"conditions": "50% DHVP (1,3-bis(1-pyrrolidonyl)butane:water 1:1), 20 ml"}, "[8]": {"conditions": "in 20 ml 25% 1,2-PG (1,2-propylene glycol:water 1:3)"}, "[9]": {"conditions": "in 20 ml 25% DHVP (1,3-bis(1-pyrrolidonyl)butane:water 1:3)"}, "[10]": {"conditions": "in 20 ml 50% 1,2-PG (1,2-propylene glycol:water 1:1)"}, "[11]": {"conditions": "in 20 ml 50% DHVP (1,3-bis(1-pyrrolidonyl)butane:water 1:1)"}, "[12]": {"conditions": "in 20 ml phosphate buffer pH 7.0"}, "[13]": {"conditions": "25% DHVC (1,3-bis(1-caprolactamyl)butane:water 1:3), 20 ml"}, "[14]": {"conditions": "50% DHVC (1,3-bis(1-caprolactamyl)butane:water 1:1), 20 ml"}, "[15]": {"conditions": "in 20 ml 25% DHVC (1,3-bis(1-caprolactamyl)butane:water 1:3)"}, "[16]": {"conditions": "in 20 ml 50% DHVC (1,3-bis(1-caprolactamyl)butane:water 1:1)"}}}
{"smiles": "CCS(=O)(=O)Oc1ccc2c(C)c(C)c(=O)oc2c1", "note": "[Esuprone]", "values": [{"measurement": "solubility at 72 h", "setting": "[1]", "value": 190, "unit": "mg/mL"}]}
{"smiles": "CC(CCN1CCCC1=O)N1CCCC1=O", "note": "(stereo not drawn) [Example 2, 1,3-Bis-(1-pyrrolidonyl)Butane]", "values": [{"measurement": "cosolvent quality mixed with water compared with propylene glycol", "setting": "[2]", "value": "better cosolvents"}]}
{"smiles": "CC(CCN1CCCCCC1=O)N1CCCCCC1=O", "note": "(stereo not drawn) [Example 4, 1,3-Bis-(1-caprolactamyl)Butane]", "values": [{"measurement": "cosolvent quality mixed with water compared with propylene glycol", "setting": "[2]", "value": "better cosolvents"}]}
{"smiles": "CC(=O)Nc1ccc(O)cc1", "note": "[Paracetamol]", "values": [{"measurement": "solubility at 72 h", "setting": "[1]", "value": 250, "unit": "mg/mL"}, {"measurement": "Solubility [%]", "setting": "[2]; [4]", "value": 2.77, "unit": "%"}, {"measurement": "Solubility [%]", "setting": "[2]; [5]", "value": 10.62, "unit": "%"}, {"measurement": "Solubility [%]", "setting": "[2]; [6]", "value": 6.46, "unit": "%"}, {"measurement": "Solubility [%]", "setting": "[2]; [7]", "value": 25.15, "unit": "%"}, {"measurement": "Solubility [%]", "setting": "[2]; Phosphate buffer pH 7.0, 20 ml", "value": 1.36, "unit": "%"}, {"measurement": "Dissolved substance", "setting": "[2]; [8]", "value": 0.5537, "unit": "g"}, {"measurement": "Dissolved substance", "setting": "[2]; [9]", "value": 2.1244, "unit": "g"}, {"measurement": "Dissolved substance", "setting": "[2]; [10]", "value": 1.2914, "unit": "g"}, {"measurement": "Dissolved substance", "setting": "[2]; [11]", "value": 5.0298, "unit": "g"}, {"measurement": "Dissolved substance", "setting": "[2]; [12]", "value": 0.2718, "unit": "g"}]}
{"smiles": "C[C@]12C=CC(=O)C=C1CC[C@@H]1[C@@H]2C(=O)C[C@@]2(C)[C@H]1CC[C@]2(O)C(=O)CO", "note": "[Prednisone]", "values": [{"measurement": "solubility at 72 h", "setting": "[1]", "value": 200, "unit": "mg/mL"}]}
{"smiles": "Nc1ccc(S(=O)(=O)Nc2nccs2)cc1", "note": "[Sulfathiazole]", "values": [{"measurement": "solubility at 72 h", "setting": "[1]", "value": 200, "unit": "mg/mL"}]}
{"smiles": "COc1cc(Cc2cnc(N)nc2N)cc(OC)c1OC", "note": "[Trimethoprim]", "values": [{"measurement": "solubility at 72 h", "setting": "[1]", "value": 150, "unit": "mg/mL"}, {"measurement": "Solubility [%]", "setting": "[2]; [4]", "value": 0.28, "unit": "%"}, {"measurement": "Solubility [%]", "setting": "[2]; [13]", "value": 1.69, "unit": "%"}, {"measurement": "Solubility [%]", "setting": "[2]; [5]", "value": 1.03, "unit": "%"}, {"measurement": "Solubility [%]", "setting": "[2]; [6]", "value": 0.89, "unit": "%"}, {"measurement": "Solubility [%]", "setting": "[2]; [14]", "value": 5.09, "unit": "%"}, {"measurement": "Solubility [%]", "setting": "[2]; [7]", "value": 3.55, "unit": "%"}, {"measurement": "Solubility [%]", "setting": "[2]; Phosphate buffer pH 7.0, 20 ml", "value": 0.12, "unit": "%"}, {"measurement": "Dissolved substance", "setting": "[2]; [8]", "value": 0.0558, "unit": "g"}, {"measurement": "Dissolved substance", "setting": "[2]; [15]", "value": 0.3382, "unit": "g"}, {"measurement": "Dissolved substance", "setting": "[2]; [9]", "value": 0.2063, "unit": "g"}, {"measurement": "Dissolved substance", "setting": "[2]; [10]", "value": 0.1785, "unit": "g"}, {"measurement": "Dissolved substance", "setting": "[2]; [16]", "value": 1.0170, "unit": "g"}, {"measurement": "Dissolved substance", "setting": "[2]; [11]", "value": 0.7097, "unit": "g"}, {"measurement": "Dissolved substance", "setting": "[2]; [12]", "value": 0.0245, "unit": "g"}]}
{"smiles": "OCC(O)CO", "note": "[glycerol]", "values": [{"measurement": "miscibility/solubility with fixed oils", "setting": "[3]", "value": "not soluble"}, {"measurement": "miscibility with water", "setting": "[3]; water", "value": "miscible"}]}
{"smiles": "CC(O)CO", "note": "(stereo not drawn) [propylene glycol]", "values": [{"measurement": "miscibility/solubility with fixed oils", "setting": "[3]", "value": "immiscible"}]}
{"smiles": "Cn1c(=O)c2[nH]cnc2n(C)c1=O", "note": "[theophylline]", "values": [{"measurement": "Solubility [%]", "setting": "[2]; [4]", "value": 1.00, "unit": "%"}, {"measurement": "Solubility [%]", "setting": "[2]; [13]", "value": 1.55, "unit": "%"}, {"measurement": "Solubility [%]", "setting": "[2]; [5]", "value": 1.30, "unit": "%"}, {"measurement": "Solubility [%]", "setting": "[2]; [6]", "value": 1.54, "unit": "%"}, {"measurement": "Solubility [%]", "setting": "[2]; [14]", "value": 2.74, "unit": "%"}, {"measurement": "Solubility [%]", "setting": "[2]; [7]", "value": 1.85, "unit": "%"}, {"measurement": "Solubility [%]", "setting": "[2]; Phosphate buffer pH 7.0, 20 ml", "value": 0.59, "unit": "%"}, {"measurement": "Dissolved substance", "setting": "[2]; [8]", "value": 0.1998, "unit": "g"}, {"measurement": "Dissolved substance", "setting": "[2]; [15]", "value": 0.3105, "unit": "g"}, {"measurement": "Dissolved substance", "setting": "[2]; [9]", "value": 0.2609, "unit": "g"}, {"measurement": "Dissolved substance", "setting": "[2]; [10]", "value": 0.3083, "unit": "g"}, {"measurement": "Dissolved substance", "setting": "[2]; [16]", "value": 0.5476, "unit": "g"}, {"measurement": "Dissolved substance", "setting": "[2]; [11]", "value": 0.3703, "unit": "g"}, {"measurement": "Dissolved substance", "setting": "[2]; [12]", "value": 0.1172, "unit": "g"}]}
